According to patent US8030487B2, “2-amino—5-substituted pyrimidine inhibitors” (TargeGen, Inc., priority 2006, dated 2011):

Experiments:
[1] = system: retinal edema induced by retinal ischemia; assay: Retinal edema (Method #1), induced by retinal ischemia; type: in vivo, rat; conditions: LE rats, 1% solution, topical bid × 5, retinal vein thrombosis; vehicle 5.2
Experimental: Retinal Edema (Method #1) Retinal edema was induced in rats by retinal ischemia. LE rats were injected i.v. with the photosensitizing dye Rose Bengal, followed by laser stimulation of a single retinal vein (in the right eye only) so as to induce thrombosis and thus retinal ischemia. Animals were dosed topically with either test compound or vehicle (10 μL eyedrops twice per day bilaterally) for a total of 5 dosings. Retinal edema was then measured by injecting animals i.p. with sodium fluorescein followed 45 later by ocular fluorophotometry to detect fluorescein leakage into the retina and vitreous chamber. An Edema Index (EI) was calculated according to the following formula: EI=(Fod−Fos)/Fos, where Fod=AUC value for fluorescence in the right eye, and Fos=AUC value for fluorescence in the left (treated but not thrombosed) eye.

[2] = system: retinal edema induced by intravitreal injection of VEGF; assay: Retinal edema (Method #2), induced by intravitreal VEGF; type: in vivo, rat; conditions: LE rats, 1% solution topical, vehicle 0.363
Experimental: Retinal Edema (Method #2) Retinal edema was induced in rats by intravitreal injection of vascular endothelial growth factor (VEGF). LE rats were dosed topically (bilaterally) with either test compound or vehicle (10 μL eyedrops), followed by intravitreal injections of either saline (left eye) or VEGF (right eye). Five hours later, animals were again dosed topically with test compound or vehicle, and then injected i.p. with sodium fluorescein followed 45 later by ocular fluorophotometry to detect fluorescein leakage into the retina and vitreous chamber. EI was calculated according to the following formula: EI=(Fod−Fos)/Fos, where Fod=AUC value for fluorescence in the right eye, and Fos=AUC value for fluorescence in the left (saline injected) eye.

[3] = system: retinal neovascularization; assay: Retinal neovascularization, normoxia-hyperoxia-normoxia mouse pups; type: in vivo; conditions: C57BL/6 mouse pups
Experimental: Retinal Neovascularization Retinal neovascularization was induced in mouse pups by cyclic exposure to normoxia-hyperoxia-normoxia. C57BL/6 mouse pups were exposed to hyperoxia (75% O2 environment) for 5 days starting at from postnatal day 7, then returned to a normoxic environment. Dosing was also initiated at this time (bilateral topical application of test compound or vehicle as a 10 μL eyedrops twice per day). After 5 days of dosing, retinal wholemounts were prepared and stained with a fluorescently labeled lectin that specifically stains murine endothelium. Digital images were captured by fluorescence microscopy and used to quantify total vascular area.

[4] = system: choroidal neovascularization; assay: Choroidal neovascularization induced by laser injury; type: in vivo, mouse; conditions: C57BL/6 mice, 1% solution topical twice per day, 14 days; vehicle 16,192
Experimental: Choroidal Neovascularization Choroidal neovasculariztion was induced in mice by laser injury. Laser photocoagulation was performed on the choroids of C57BL/6 mice, after which mice were dosed topically with test compound or vehicle for a total of 14 days (10 μL applied per eye twice per day). At the end of the 2 week dosing period, mice were perfused with fluorescein-labeled dextran (2×10^6 average molecular weight), eyes were removed and fixed in formalin, and choroidal flatmounts prepared. Laser injury sites were photographed by fluorescence microscopy and digital images were used to quantify the area of choroidal neovascularization.

Yes = target: T1, Yes (Homo sapiens, UniProt P07947); assay: Yes kinase inhibition (KinaseGlo); type: biochemical
T1 construct: purchased Panvera/Invitrogen
Experimental: (§1) The ability of compounds of the present invention to inhibit the activity of various groups of kinases was tested. Kinases that were tested are described below. All kinase reactions were conducted in 96-well plates with a final reaction volume of 50 μl.
(§2) Recombinant human c-Src or Yes, or Fyn, or Lck (28 ng/well, Panvera/Invitrogen, Madison Wis.), ATP (3 μM), a tyrosine kinase substrate (PTK2, 250 μM, Promega Corp., Madison Wis.), and test agents (at concentrations ranging from about 1 nM/l to about 100 μM/l), in the presence of Src kinase reaction buffer (Upstate USA, Lake Placid N.Y.). After reacting for about 90 minutes at room temperature, residual ATP was determined using a luciferase-based assay (KinaseGlo, Promega Corp.) as a measure of kinase activity. Data from four wells were then averaged and used to determine IC50 values for the test compounds (Prism software package, GraphPad Software, San Diego Calif.).

Lck = target: T2, Lck (Homo sapiens, UniProt P06239); assay: Lck kinase inhibition (KinaseGlo); type: biochemical
T2 construct: purchased Panvera/Invitrogen
Experimental: as §1, §2

Abl = Abl (Homo sapiens, UniProt P00519); assay: Abl kinase inhibition; type: biochemical
Experimental: as §1
Src Family of Kinases, abl, and Ret
as §2

EGFR = target: T3, EGFR (Homo sapiens, UniProt P00533); assay: EGFR kinase inhibition (residual ATP); type: biochemical; conditions: 2.5 uM ATP, 60 min 37° C.
T3 construct: purchased Panvera/Invitrogen
Experimental: as §1
EGFR and VEGFR2 kinase assays were similarly performed. EGFR (76 ng/well, Panvera/Invitrogen) was combined with 12.5 mg/ml poly(glu4tyr) (Sigma) and 2.5 uM ATP. VEGFR2 (14.1 U/well, Cell Signaling/ProQinase) was used with 0.3 mg/ml poly(glu4tyr) and 1.5 uM ATP. Both were incubated for 60 minutes at 37° C., and the residual ATP was measured via luminescence, per the procedure described above.

[5] = system: human retinal micro vascular endothelial cells (hRMVEC); assay: Cellular data using hRMVEC; type: cell-based; conditions: Endothelial cell

T3 sequence (P00533 25-1210, species assumed): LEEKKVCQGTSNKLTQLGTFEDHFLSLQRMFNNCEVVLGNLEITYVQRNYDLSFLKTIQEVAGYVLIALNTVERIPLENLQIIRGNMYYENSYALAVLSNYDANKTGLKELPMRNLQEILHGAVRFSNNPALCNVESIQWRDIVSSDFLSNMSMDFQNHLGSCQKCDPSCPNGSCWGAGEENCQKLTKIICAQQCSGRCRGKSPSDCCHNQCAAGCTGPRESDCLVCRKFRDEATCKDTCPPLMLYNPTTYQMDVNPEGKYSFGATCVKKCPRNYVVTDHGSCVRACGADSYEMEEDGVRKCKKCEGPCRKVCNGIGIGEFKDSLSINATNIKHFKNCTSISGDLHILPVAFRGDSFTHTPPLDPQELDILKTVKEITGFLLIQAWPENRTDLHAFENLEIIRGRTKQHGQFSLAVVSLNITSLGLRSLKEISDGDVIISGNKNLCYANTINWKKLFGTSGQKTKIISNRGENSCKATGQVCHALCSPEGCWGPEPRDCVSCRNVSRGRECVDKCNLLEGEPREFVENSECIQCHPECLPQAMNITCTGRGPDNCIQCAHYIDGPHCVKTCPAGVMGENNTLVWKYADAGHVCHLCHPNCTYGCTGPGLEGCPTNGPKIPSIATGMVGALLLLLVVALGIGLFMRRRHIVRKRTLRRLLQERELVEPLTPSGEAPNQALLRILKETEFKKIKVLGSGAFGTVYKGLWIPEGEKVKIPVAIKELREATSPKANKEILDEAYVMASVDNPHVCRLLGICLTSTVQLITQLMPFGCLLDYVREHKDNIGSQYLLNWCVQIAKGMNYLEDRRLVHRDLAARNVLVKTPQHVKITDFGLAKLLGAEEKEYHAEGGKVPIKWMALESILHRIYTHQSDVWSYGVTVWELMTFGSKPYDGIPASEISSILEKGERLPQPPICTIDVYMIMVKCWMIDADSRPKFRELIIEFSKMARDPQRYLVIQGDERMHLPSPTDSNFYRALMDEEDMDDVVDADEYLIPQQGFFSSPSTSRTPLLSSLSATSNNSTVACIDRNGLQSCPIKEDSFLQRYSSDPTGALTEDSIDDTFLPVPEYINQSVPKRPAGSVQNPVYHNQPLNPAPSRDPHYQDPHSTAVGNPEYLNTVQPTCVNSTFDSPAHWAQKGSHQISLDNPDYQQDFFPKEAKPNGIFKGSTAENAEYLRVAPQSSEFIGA
Sequence of Abl (P00519 whole entry, species assumed): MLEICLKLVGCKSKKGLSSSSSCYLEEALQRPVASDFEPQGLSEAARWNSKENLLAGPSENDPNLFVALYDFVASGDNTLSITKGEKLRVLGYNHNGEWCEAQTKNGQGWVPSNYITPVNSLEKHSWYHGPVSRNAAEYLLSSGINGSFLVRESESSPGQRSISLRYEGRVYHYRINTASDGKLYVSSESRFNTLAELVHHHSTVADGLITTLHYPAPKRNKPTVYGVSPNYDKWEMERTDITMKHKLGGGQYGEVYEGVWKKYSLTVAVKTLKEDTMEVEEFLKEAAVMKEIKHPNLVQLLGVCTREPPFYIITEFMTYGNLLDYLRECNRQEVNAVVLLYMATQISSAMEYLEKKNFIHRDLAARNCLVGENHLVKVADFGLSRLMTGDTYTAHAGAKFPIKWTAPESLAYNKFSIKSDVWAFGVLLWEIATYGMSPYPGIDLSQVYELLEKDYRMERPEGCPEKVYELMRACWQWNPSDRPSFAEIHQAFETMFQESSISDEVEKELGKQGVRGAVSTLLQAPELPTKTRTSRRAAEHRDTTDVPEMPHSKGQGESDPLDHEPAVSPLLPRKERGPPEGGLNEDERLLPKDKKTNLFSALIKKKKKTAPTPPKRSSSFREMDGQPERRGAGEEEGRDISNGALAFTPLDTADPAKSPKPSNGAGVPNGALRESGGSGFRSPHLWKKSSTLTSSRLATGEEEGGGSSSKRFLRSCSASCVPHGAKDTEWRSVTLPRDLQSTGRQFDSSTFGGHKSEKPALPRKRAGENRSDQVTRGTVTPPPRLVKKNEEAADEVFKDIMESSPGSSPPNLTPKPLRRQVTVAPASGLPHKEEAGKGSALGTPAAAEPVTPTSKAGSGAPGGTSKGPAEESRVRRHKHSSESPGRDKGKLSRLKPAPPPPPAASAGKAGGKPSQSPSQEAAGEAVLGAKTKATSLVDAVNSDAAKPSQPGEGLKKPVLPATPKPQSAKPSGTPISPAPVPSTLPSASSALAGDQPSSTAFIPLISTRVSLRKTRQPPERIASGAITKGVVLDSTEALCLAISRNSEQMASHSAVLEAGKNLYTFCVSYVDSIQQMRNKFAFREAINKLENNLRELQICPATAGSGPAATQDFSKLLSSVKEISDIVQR
T1 sequence (P07947 whole entry): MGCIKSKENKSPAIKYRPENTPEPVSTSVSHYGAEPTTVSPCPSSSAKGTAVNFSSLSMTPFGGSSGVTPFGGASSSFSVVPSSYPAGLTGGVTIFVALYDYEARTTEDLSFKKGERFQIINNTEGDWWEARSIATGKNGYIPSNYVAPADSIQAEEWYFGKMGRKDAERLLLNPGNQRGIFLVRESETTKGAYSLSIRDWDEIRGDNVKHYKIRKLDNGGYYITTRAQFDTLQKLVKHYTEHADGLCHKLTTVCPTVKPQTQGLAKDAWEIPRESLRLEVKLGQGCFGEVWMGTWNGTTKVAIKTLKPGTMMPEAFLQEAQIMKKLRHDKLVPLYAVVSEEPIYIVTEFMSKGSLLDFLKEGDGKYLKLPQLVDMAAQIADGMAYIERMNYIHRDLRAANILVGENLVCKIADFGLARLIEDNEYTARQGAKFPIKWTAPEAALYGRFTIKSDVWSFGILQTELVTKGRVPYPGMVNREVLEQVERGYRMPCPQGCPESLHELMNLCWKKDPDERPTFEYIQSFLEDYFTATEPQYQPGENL
T2 sequence (P06239 whole entry): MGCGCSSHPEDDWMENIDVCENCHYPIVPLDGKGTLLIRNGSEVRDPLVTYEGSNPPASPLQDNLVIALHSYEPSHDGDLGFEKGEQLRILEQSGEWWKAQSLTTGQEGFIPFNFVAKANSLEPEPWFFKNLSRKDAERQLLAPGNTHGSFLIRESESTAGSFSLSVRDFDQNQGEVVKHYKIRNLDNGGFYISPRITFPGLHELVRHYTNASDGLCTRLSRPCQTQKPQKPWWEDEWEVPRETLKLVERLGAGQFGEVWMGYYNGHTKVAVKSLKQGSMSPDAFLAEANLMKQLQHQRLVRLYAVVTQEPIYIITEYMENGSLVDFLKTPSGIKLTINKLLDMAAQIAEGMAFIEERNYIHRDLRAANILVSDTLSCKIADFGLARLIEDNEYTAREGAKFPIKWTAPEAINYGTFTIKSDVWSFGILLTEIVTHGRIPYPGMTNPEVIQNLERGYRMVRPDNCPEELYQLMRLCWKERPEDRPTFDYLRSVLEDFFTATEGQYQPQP

SMILES	IC50 (Yes) [nM]	IC50 (Lck) [nM]	IC50 (Abl) [nM]	EC50 [5] [nM]	further results
O=C(Nc1ccc(Cl)c(C(=O)Nc2cnc(Nc3ccc(OCCN4CCCC4)cc3)nc2)c1)c1cccc(C(F)(F)F)c1 [Compound XL, 2-Chloro-N-{2-[4-(2-Pyrrolidin-1-yl-ethoxy)-Phenylamino]-Pyrimidin-5-yl}-5-(3-Trifluoromethyl-Benzoylamino)-Benzamide]					Edema Index [1]: 2.3; EI [2]: 0.110; reduction in retinal vascularization compared to vehicle ([3]; 0.1% solution, twice per day, 5 days, P=0.009): 29%; % Reduction vs. Vehicle (retinal vascularization) ([3]; 1% of compound XL (table), topical bid × 5): 29%; Area (mm^2), total retinal vascular area ([3]; 1% of compound XL (table), topical bid × 5, vehicle 8.269): 6.429 mm^2; Area (μm^2) of choroidal neovascularization [4]: 9,388 μm^2
O=C(Nc1ccc(Cl)c(C(=O)Nc2cnc(Nc3cccc(OCCN4CCCC4)c3)nc2)c1)c1cccc(C(F)(F)F)c1 [drawing 225]	0.52	1.7	1.1		
Cc1ccc(NC(=O)c2cccc(C(F)(F)F)c2)cc1C(=O)Nc1cnc(Nc2cccc(OCCN3CCCC3)c2)nc1 [drawing 226]	0.93	3.8			
O=C(Nc1cnc(Nc2cccc(OCCN3CCCC3)c2)nc1)c1cc(NC(=O)C(F)(F)F)ccc1Cl [drawing 227]			154		
O=C(Nc1ccc(Cl)c(C(=O)Nc2cnc(Nc3ccc(S(=O)(=O)C4CCNCC4)cc3)nc2)c1)c1cccc(C(F)(F)F)c1 [drawing 228]	0.9	4.5	0.2		
Cc1ccc(NC(=O)c2cccc(C(F)(F)F)c2)cc1C(=O)Nc1cnc(Nc2ccc(OCCN3CCCC3)cc2)nc1 [drawing 229]	1.3	5.1	5.5		
O=C(Nc1ccc(Cl)c(C(=O)Nc2cnc(Nc3ccc(OCCN4CCCC4)cc3)nc2)c1)c1cccc(C(F)(F)F)c1 [drawing 230]	0.46	2.2	1.8		IC50 (EGFR): 98 nM
O=C(Nc1ccc(Cl)c(C(=O)Nc2cnc(Nc3ccc(CCCN4CCCC4)cc3)nc2)c1)c1cccc(C(F)(F)F)c1 [drawing 231]			3.8		
Cc1ccc(NC(=O)C(F)(F)F)cc1C(=O)Nc1cnc(Nc2cccc(OCCN3CCCC3)c2)nc1 [drawing 232]			126		
O=C(Nc1ccc(Cl)c(C(=O)Nc2cnc(Nc3ccc(CCCN4CCCC4)cc3)nc2)c1)c1cccc(C(F)(F)F)c1 [drawing 233]					IC50 (EGFR): 124 nM
O=C(Nc1ccc(Cl)c(C(=O)Nc2cnc(Nc3ccccc3)nc2)c1)c1cccc(C(F)(F)F)c1 [drawing 234]	4.2	32.2			
Cc1ccc(Nc2nccc3ccccc23)cc1C(=O)Nc1cnc(Nc2cccc(OCCN3CCCC3)c2)nc1 [drawing 236]	22.2	309			
O=C(Nc1cccc(C(F)(F)F)c1)Nc1ccc(Cl)c(C(=O)Nc2cnc(Nc3ccc(OCCN4CCCC4)cc3)nc2)c1 [drawing 237]	2.5	22.4			IC50 (EGFR): 558 nM
O=C(Nc1ccc(Cl)c(C(=O)Nc2cnc(Nc3cccc(OCCN4CCCC4)c3)nc2)c1)c1cccc(C(F)(F)F)c1 [drawing 238]				69	
O=C(Nc1ccc(Cl)c(C(=O)Nc2cnc(Nc3ccc(S(=O)(=O)C4CCNCC4)cc3)nc2)c1)c1cccc(C(F)(F)F)c1 [drawing 239]				1150	
Cc1ccc(NC(=O)c2cccc(C(F)(F)F)c2)cc1C(=O)Nc1cnc(Nc2ccc(OCCN3CCCC3)cc2)nc1 [drawing 240]				199	
O=C(Nc1ccc(Cl)c(C(=O)Nc2cnc(Nc3ccc(OCCN4CCCC4)cc3)nc2)c1)c1cccc(C(F)(F)F)c1 [drawing 241]				30	
O=C(Nc1ccc(Cl)c(C(=O)Nc2cnc(Nc3ccc(CCCN4CCCC4)cc3)nc2)c1)c1cccc(C(F)(F)F)c1 [drawing 242]				41	
O=C(Nc1ccc(Cl)c(C(=O)Nc2cnc(Nc3cccnc3)nc2)c1)c1cccc(C(F)(F)F)c1 [drawing 243]				68	
